Assay results taken from ChEMBL document CHEMBL5352436, “Triterpenoid pyrazines and pyridines - Synthesis, cytotoxicity, mechanism of action, preparation of prodrugs” (Eur J Med Chem, 2022).
Calls of active or inactive are those of the source. The calls are words filed in the database; no cut-off is given here.

Key:
CCRF-CEM [1] = assay: Cytotoxicity against human CCRF-CEM cells assessed as reduction in cell viability incubated for 72 hrs by MTS assay; format: functional, cell-based
CEM-DNR = assay: Cytotoxicity against human CEM-DNR cells assessed as reduction in cell viability incubated for 72 hrs by MTS assay; format: functional, cell-based
K562 = assay: Cytotoxicity against human K562 cells assessed as reduction in cell viability incubated for 72 hrs by MTS assay; format: functional, cell-based; settings: K562, 72 h
[2] = Cytotoxicity against human K562-Tax cells assessed as reduction in cell viability incubated for 72 hrs by MTS assay; format: functional, cell-based
HCT-116 = assay: Cytotoxicity against human HCT-116 cells assessed as reduction in cell viability incubated for 72 hrs by MTS assay; format: functional, cell-based; settings: HCT-116, 72 h
[3] = Cytotoxicity against human HCT116-p53-null cells assessed as reduction in cell viability incubated for 72 hrs by MTS assay; format: functional, cell-based
A549 = assay: Cytotoxicity against human A549 cells assessed as reduction in cell viability incubated for 72 hrs by MTS assay; format: functional, cell-based; settings: A549, 72 h
U2OS = assay: Cytotoxicity against human U2OS cells assessed as reduction in cell viability incubated for 72 hrs by MTS assay; format: functional, cell-based
[4] = Cytotoxicity against human BJ cells assessed as reduction in cell viability incubated for 72 hrs by MTS assay; format: toxicity, cell-based
[5] = Cytotoxicity against human MRC5 cells assessed as reduction in cell viability incubated for 72 hrs by MTS assay; format: toxicity, cell-based
CCRF-CEM [6] = assay: Induction of apoptosis in human CCRF-CEM cells assessed as viable cells at 1 time IC50 incubated for 24 hrs by Annexin V and propidium iodide staining based flow cytometry analysis […]; format: functional
CCRF-CEM [7] = assay: Induction of apoptosis in human CCRF-CEM cells assessed as early apoptotic cells at 1 time IC50 incubated for 24 hrs by Annexin V and propidium iodide staining based flow cytometry analysis (reference value: […]); format: functional
CCRF-CEM [8] = assay: Induction of apoptosis in human CCRF-CEM cells assessed as late apoptotic cells at 1 time IC50 incubated for 24 hrs by Annexin V and propidium iodide staining based flow cytometry analysis (reference value: […]); format: functional
CCRF-CEM [9] = assay: Induction of apoptosis in human CCRF-CEM cells assessed as necrotic cells at 1 time IC50 incubated for 24 hrs by Annexin V and propidium iodide staining based flow cytometry analysis (reference value: 0.0%); format: functional
CCRF-CEM [10] = assay: Induction of apoptosis in human CCRF-CEM cells assessed as viable cells at 5 times IC50 incubated for 24 hrs by Annexin V and propidium iodide staining based flow cytometry analysis […]; format: functional
CCRF-CEM [11] = assay: Induction of apoptosis in human CCRF-CEM cells assessed as early apoptotic cells at 5 times IC50 incubated for 24 hrs by Annexin V and propidium iodide staining based flow cytometry analysis […]; format: functional
CCRF-CEM [12] = assay: Induction of apoptosis in human CCRF-CEM cells assessed as late apoptotic cells at 5 times IC50 incubated for 24 hrs by Annexin V and propidium iodide staining based flow cytometry analysis […]; format: functional
CCRF-CEM [13] = assay: Induction of apoptosis in human CCRF-CEM cells assessed as necrotic cells at 5 times IC50 incubated for 24 hrs by Annexin V and propidium iodide staining based flow cytometry analysis […]; format: functional
CCRF-CEM [14] = assay: Induction of apoptosis in human CCRF-CEM cells assessed as accumulation of Bax protein expression at 1 to 5 times IC50 incubated for 24 hrs by Western blot analysis; format: functional, cell-based
CCRF-CEM [15] = assay: Induction of apoptosis in human CCRF-CEM cells assessed as accumulation of Bid protein expression at 1 to 5 times IC50 incubated for 24 hrs by Western blot analysis; format: functional, cell-based
CCRF-CEM [16] = assay: Induction of apoptosis in human CCRF-CEM cells assessed as PARP cleavage at 1 to 5 times IC50 incubated for 24 hrs by Western blot analysis; format: functional, cell-based
CCRF-CEM [17] = assay: Induction of apoptosis in human CCRF-CEM cells assessed as increase in Noxa expression at 1 to 5 times IC50 incubated for 24 hrs by Western blot analysis; format: functional, cell-based
CCRF-CEM [18] = assay: Induction of apoptosis in human CCRF-CEM cells assessed as decrease in c-Myc expression at 1 to 5 times IC50 incubated for 24 hrs by Western blot analysis; format: functional, cell-based

Row | SMILES | IC50 (CCRF-CEM [1]) [µM] | IC50 (CEM-DNR) [µM] | IC50 (K562) [µM] | IC50 [2] [µM] | IC50 (HCT-116) [µM] | IC50 [3] [µM] | IC50 (A549) [µM] | IC50 (U2OS) [µM] | IC50 at 72 h [4] [µM] | IC50 at 72 h [5] [µM] | Activity (CCRF-CEM [6]) [%] | Activity (CCRF-CEM [7]) [%] | Activity (CCRF-CEM [8]) [%] | Activity (CCRF-CEM [9]) [%] | Activity (CCRF-CEM [10]) [%] | Activity (CCRF-CEM [11]) [%] | Activity (CCRF-CEM [12]) [%] | Activity (CCRF-CEM [13]) [%] | Activity (CCRF-CEM [14]) | Activity (CCRF-CEM [15]) | other results
1 | C=C(C)[C@@H]1CC[C@]2(C(=O)OCc3oc(=O)oc3C)CC[C@]3(C)[C@H](CC[C@@H]4[C@@]5(C)CC[C@H](O)C(C)(C)[C@@H]5CC[C@]43C)[C@@H]12 | 4.5 | 14 | 8.3 | 12 | 17 | 15 | 13 | 19 | 44 | 41 | 87.4 | 2.1 | 1.9 | 8.7 | 83.7 | 6.1 | 3.4 | 6.8 | Active | Active | Activity (CCRF-CEM [16]): Active; Activity (CCRF-CEM [17]): Active; Activity (CCRF-CEM [18]): Active
2 | C=C(C)[C@@H]1CC[C@]2(C(=O)OCc3oc(=O)oc3C)CC[C@]3(C)[C@H](CC[C@@H]4[C@@]5(C)CCC(=O)C(C)(C)[C@@H]5CC[C@]43C)[C@@H]12 | 2.3 | 9.1 | 0.87 | 11 | 21 | 19 | 9.5 | 22 | > 50 | 47 | 89.8 | 2 | 1.9 | 6.4 | 85.3 | 7.1 | 6.5 | 1.1 | Active | Active | Activity (CCRF-CEM [16]): Active; Activity (CCRF-CEM [17]): Active
3 | C=C(C=O)[C@@H]1CC[C@]2(C(=O)OCc3cn([C@H]4O[C@H](CO)[C@@H](O)[C@H](O)[C@H]4O)nn3)CC[C@]3(C)[C@H](CC[C@@H]4[C@@]5(C)Cc6nccnc6C(C)(C)[C@@H]5CC[C@]43C)[C@@H]12 (stereo in doubt) | – | – | – | – | – | – | – | – | – | – | 86.9 | 4.9 | 3.3 | 5 | 0.6 | 41.5 | 57.7 | 0.1 | Active | Active | Activity (CCRF-CEM [16]): Active; Activity (CCRF-CEM [17]): Active; Activity (CCRF-CEM [18]): Active
4 | CC1=CC[C@]2(C(=O)O)CC[C@]3(C)C(=CC[C@@H]4[C@@]5(C)Cc6cccnc6C(C)(C)[C@@H]5CC[C@]43C)[C@H]2[C@@H]1C | 6.3 | 11 | 12 | 13 | 34 | 34 | 20 | 35 | > 50 | > 50 | – | – | – | – | – | – | – | – | – | – | –
